Results on 3 molecules are retold here after patent US20120071401A1, “AMYLIN AGONIST COMPOUNDS FOR ESTROGEN-DEFICIENT MAMMALS” (Amylin Pharamaceuticals, Inc., priority 2009, published 2012).

Series [1] is described as follows: in vivo. Particulars: rat, 50 ug/kg/d; for level at 672 h: Plasma amylin. The procedure: Amylin infusion to lean or obese, diabetic ZDF rats. Obese diabetic female ZDF rats (Charles River Laboratories) were maintained on 32% kcal/fat purified diet for approximately 6 weeks, and at 10 weeks of age were sorted into two weight-matched groups. One group was subjected to a bilateral ovariectomy (n=12) or SHAM surgery (n=12). Two weeks post-surgery rats were implanted with a single osmotic minipump (Alzet model 2ML4, Durect Corporation) delivering either vehicle or rat amylin (50 ug/kg/d) to half of each surgical group for 28 days. Lean (mean body weight 226±3 g) ZDF controls (Charles River) maintained on standard laboratory rodent chow (LM-485, 5% kcal/fat; Harlan Teklad) were sorted into weight-matched groups and implanted with a single osmotic minipump (Alzet model 2ML4, Durect Corporation) delivering either vehicle (n=9) or rat amylin (50 ug/kg/d; n=9) for 28 days. For both studies food intake and body weight were monitored weekly, and body composition was assessed at baseline and termination using NMR (Echo Medical Systems). After 28 days rats were euthanized by isoflurane overdose and cardiac blood collected.
Plasma metabolite analyses. Terminal plasma insulin (Crystal Chem Inc., Downer's Grove, Ill.), and leptin, total adiponectin and total ghrelin (Millipore, Billerica, […].) levels were measured using commercially available ELISA. Plasma glucose, triglyceride, and total cholesterol levels were measured using an Olympus bioanalyzer (Olympus America Diagnostics, Center Valley, Pa.). Plasma amylin levels were measured using an internal IEMA.

The conditions of series [2]: human subjects; cited from earlier work.
For series [3] the following is noted: DIO rats, leptin dose alone; cited from earlier work.

`CC(C)C[C@H](NC(=O)[C@H](CC(N)=O)NC(=O)[C@H](CC(N)=O)NC(=O)[C@H](CO)NC(=O)[C@H](CO)NC(=O)[C@H](CCCNC(=N)N)NC(=O)[C@@H](NC(=O)[C@H](CC(C)C)NC(=O)[C@H](Cc1ccccc1)NC(=O)[C@H](CC(N)=O)NC(=O)[C@H](C)NC(=O)[C@H](CC(C)C)NC(=O)[C@H](CCCNC(=N)N)NC(=O)[C@H](CCC(N)=O)NC(=O)[C@@H](NC(=O)[C@H](C)NC(=O)[C@@H]1CSSC[C@H](NC(=O)[C@@H](N)CCCCN)C(=O)N[C@@H](CC(N)=O)C(=O)N[C@@H]([C@@H](C)O)C(=O)N[C@@H](C)C(=O)N[C@@H]([C@@H](C)O)C(=O)N1)[C@@H](C)O)C(C)C)C(=O)NCC(=O)N1CCC[C@H]1C(=O)N[C@H](C(=O)N[C@@H](CC(C)C)C(=O)N1CCC[C@H]1C(=O)N1CCC[C@H]1C(=O)N[C@H](C(=O)N[C@@H](CC(N)=O)C(=O)N[C@H](C(=O)NCC(=O)N[C@@H](CO)C(=O)N[C@@H](CC(N)=O)C(=O)N[C@H](C(=O)N[C@@H](Cc1ccc(O)cc1)C(N)=O)[C@@H](C)O)C(C)C)[C@@H](C)O)C(C)C` [rat amylin]: the level at 672 h stood at 3.43 ± 0.392 ng/mL in series [1] (ZDF (lean controls)) and 3.45 ± 0.401 ng/mL in series [1] (female, ZDF (obese diabetic)). In addition, the Plasma amylin in series [1] (female, ZDF (obese diabetic), 672 h) turned out to be 3279 ± 430 pg/mL.

Take `CC[C@H](C)[C@H](NC(=O)[C@@H]1CCCN1C(=O)CNC(=O)[C@H](Cc1ccccc1)NC(=O)[C@H](CC(N)=O)NC(=O)[C@H](CC(N)=O)NC(=O)[C@H](CO)NC(=O)[C@H](CO)NC(=O)[C@H](Cc1c[nH]cn1)NC(=O)[C@@H](NC(=O)[C@H](CC(C)C)NC(=O)[C@H](Cc1ccccc1)NC(=O)[C@H](CC(N)=O)NC(=O)[C@H](C)NC(=O)[C@H](CC(C)C)NC(=O)[C@H](CCCNC(=N)N)NC(=O)[C@H](CCC(N)=O)NC(=O)[C@@H](NC(=O)[C@H](C)NC(=O)[C@@H]1CSSC[C@H](NC(=O)[C@@H](N)CCCCN)C(=O)N[C@@H](CC(N)=O)C(=O)N[C@@H]([C@@H](C)O)C(=O)N[C@@H](C)C(=O)N[C@@H]([C@@H](C)O)C(=O)N1)[C@@H](C)O)C(C)C)C(=O)N[C@@H](CC(C)C)C(=O)N1CCC[C@H]1C(=O)N1CCC[C@H]1C(=O)N[C@H](C(=O)N[C@@H](CC(N)=O)C(=O)N[C@H](C(=O)NCC(=O)N[C@@H](CO)C(=O)N[C@@H](CC(N)=O)C(=O)N[C@H](C(=O)N[C@@H](Cc1ccc(O)cc1)C(N)=O)[C@@H](C)O)C(C)C)[C@@H](C)O` [pramlintide]: the “Food intake and body weight” value in series [2] is “reduced food intake and body weight”.

B1: leptin (protein, UniProt P50596 22-167, looked up)
Leptin: VPIHKVQDDTKTLIKTIVTRINDISHTQSVSARQRVTGLDFIPGLHPILSLSKMDQTLAVYQQILTSLPSQNVLQIAHDLENLRDLLHLLAFSKSCSLPQTRGLQKPESLDGVLEASLYSTEVVALSRLQGSLQDILQQLDLSPEC
notes: long term signal of adiposity; acts synergistically with amylin in DIO rats
Regarding B1, the Reducing body weight result in series [3] was “ineffective”.
